Values of other authors as cited in US11141417B2 (priority 2013, dated 2021).
Entries after “also recorded” stand apart in the source; their conditions may differ.

Details: classification in words

## C[C@@H](c1ncncc1F)[C@](O)(Cn1cncn1)c1ccc(F)cc1F [Voriconazole, (2R,3S)-2-(2,4-difluorophenyl)-3-(5-fluoro-4-pyrimidinyl)-1-(1H-1,2,4triazol-1-yl)-2-butanol]
  solubility in water: only sparingly soluble in water; also recorded: very slightly soluble in water
